Values of other authors, collected in patent US20080176787A1, “Parathyroid hormone analogues and methods of use” (priority 2005, published 2008).
Where two headings read alike, the source gives them in different places. Marks after values point to notes of the source that are not given here.

Tests used:
[1] = test system: OVX adult Cynomolgus monkeys; conditions: Humerus Mid-Diaphysis, F, 18 months, cited from earlier work
[2] = test system: OVX adult Cynomolgus monkeys; conditions: Femoral Neck, F, 18 months, cited from earlier work
[3] = test system: monkey; conditions: cited from earlier work
[4] = test system: postmenopausal women (with prior vertebral fractures); conditions: cited from earlier work; for hypercalcemia seen at least once, % of subjects: average of 19 months (placebo 2%)
[5] = test system: rats; conditions: rat, in vivo; cited from earlier work
[6] = test system: patients; conditions: cited from earlier work
[7] = teriparatide 0, 0.5, 2, 10 μg/kg, 12 mth monkey
[8] = 20 μg (6 months), inferred from graphed data

Structure (SMILES): CC[C@H](C)[C@H](NC(=O)[C@H](CCC(=O)O)NC(=O)[C@H](CO)NC(=O)[C@@H](NC(=O)[C@@H](N)CO)C(C)C)C(=O)N[C@@H](CCC(N)=O)C(=O)N[C@@H](CC(C)C)C(=O)N[C@@H](CCSC)C(=O)N[C@@H](Cc1cnc[nH]1)C(=O)N[C@@H](CC(N)=O)C(=O)N[C@@H](CC(C)C)C(=O)NCC(=O)N[C@@H](CCCCN)C(=O)N[C@@H](Cc1cnc[nH]1)C(=O)N[C@@H](CC(C)C)C(=O)N[C@@H](CC(N)=O)C(=O)N[C@@H](CO)C(=O)N[C@@H](CCSC)C(=O)N[C@@H](CCC(=O)O)C(=O)N[C@@H](CCCN=C(N)N)C(=O)N[C@H](C(=O)N[C@@H](CCC(=O)O)C(=O)N[C@@H](Cc1c[nH]c2ccccc12)C(=O)N[C@@H](CC(C)C)C(=O)N[C@@H](CCCN=C(N)N)C(=O)N[C@@H](CCCCN)C(=O)N[C@@H](CCCCN)C(=O)N[C@@H](CC(C)C)C(=O)N[C@@H](CCC(N)=O)C(=O)N[C@@H](CC(=O)O)C(=O)N[C@H](C(=O)N[C@@H](Cc1cnc[nH]1)C(=O)N[C@@H](CC(N)=O)C(=O)N[C@@H](Cc1ccccc1)C(=O)O)C(C)C)C(C)C [Forteo, hPTH-(1-34)]
- % Cortical Porosity ([1]; 1 μg/kg/day): ~15.0* %
- % Cortical Porosity ([1]; 5 μg/kg/day): ~25* %
- % Cortical Porosity ([2]; 1 μg/kg/day): 8.5 ± 0.8 %
- % Cortical Porosity ([2]; 5 μg/kg/day): 8.9 ± 0.6 %
- nephropathy ([3]; pre-clinical toxicity): induces a mineralizing nephropathy in monkeys and possibly rats
- Free Ca [3, 7]: Free Ca increased
- serum neutralising antibodies [3, 7]: detected all doses
- tubulo-interstitial nephritis [3, 7]: nephritis all doses;
- NoAEL ([3]; teriparatide, 12 mth monkey): <0.5 µg/kg
- Mean % Change In Femoral Neck (BMD) ([4]; 20 μg for at least 12 Months): 1.54%
- Mean % Change In Total Hip (BMD) ([4]; 20 μg for at least 12 Months): 1.70%
- Mean % Change In Trochanter (BMD) ([4]; 20 μg for at least 12 Months): 2.68%
- hypercalcemia seen at least once, % of subjects ([4]; 20 μg/day): 11%
- hypercalcemia seen at least once, % of subjects ([4]; 40 μg/day): 28%
- BMD in distal and mid-shaft radius compared to placebo ([4]; Neer et al.): decrease in BMD
- osteosarcoma in rats (warning label) [5]: increase in incidence of osteosarcoma in rats
- CTx [6, 8]: 3300^2 pM/L
- P1NP [6, 8]: 71^2 μg/L
- TH-BMD (%) [6, 8]: 0.6^2%
- FN-BMD (%) ([6]; 20 μg (6 months)): 1.02%
- LS-BMD (%) ([6]; 20 μg (6 months)): 5.2%
- Mean [Ca] ([6]; 20 μg (6 months)): 0.075 mmol/L
- Pts > 2.75 mmol/L ([6]; in vivo): 5
- Pts > 2.75 mmol/L (sustained) ([6]; in vivo): 2
